In patent US4395403A, “Polypeptides, processes for their production, pharmaceutical compositions comprising said polypeptides and their use” (Sandoz Ltd., priority 1979, dated 1983):

Legend:
[1] = system: GH-secretion (serum GH-level); test: TEST I: depression of serum GH-levels in the rat (GH-secretion inhibition); type: in vivo; settings: male rats under Nembutal narcosis, 15 minutes after administration
Method: This test (TEST I) is carried out employing male rats under Nembutal narcosis. The test-substance is administered at varying, logarithmically staggered doses employing at least 4 rats per dose. The rats are decapitated 15 minutes after administration, the blood is collected and the serum GH-level determined by radio-immuno-assay.
Polypeptides in accordance with the invention are active in this test when administered at a dosage in the range of from 0.01 to 100 μg/kg i.v. or i.m.

gastric secretion = test: TEST II: inhibition of pentagastrin-stimulated gastric secretion in pylorus-ligated rats; type: in vivo, rat; settings: i.m., 100 μg/kg pentagastrin s.c., 30 mins
Method: Male rats (220-280 g) are kept in the laboratory in individual cages for several days (14 hours light/day) with 48 hours fasting (but free access to water) immediately prior to the experiment. At start of the experiment the pylorus is ligated under ether anaesthesia and 100 μg/kg pentagastrin are injected s.c. to stimulate gastric secretion. The test compounds are injected simultaneously i.m. 30 mins. later the animals are sacrificed, the volume of gastric juice measured and the acid concentration estimated (titration with thymol blue). The acid output is calculated and the percent inhibition estimated in relation to untreated controls.
Polypeptides in accordance with the invention are active in this test when administered at a dosage in the range of from 0.01 to 100 μg/kg i.m.

C[C@H](N)C(=O)NCC(=O)N[C@H]1CSSC[C@@H](C(=O)O)NC(=O)[C@H](CO)NC(=O)[C@H]([C@@H](C)O)NC(=O)[C@H](Cc2ccccc2)NC(=O)[C@H]([C@@H](C)O)NC(=O)[C@H](CCCCN)NC(=O)[C@H](Cc2c[nH]c3ccccc23)NC(=O)[C@H](Cc2ccccc2)NC(=O)[C@H](Cc2ccccc2)NC(=O)[C@H](CC(N)=O)NC(=O)[C@H](CCCCN)NC1=O [somatostatin]
ID50 in TEST I (amount required to effect 50% inhibition of serum GH-level compared with untreated controls) ([1]; i.m.): 0.0056 mg/kg
ID50 in TEST I (amount required to effect 50% inhibition of serum GH-level compared with untreated controls) ([1]; i.v.): 0.062 mg/kg
ID50 in TEST II for acid concentration (gastric secretion): 0.035 mg/kg
ID50 in TEST II for gastric juice content (gastric secretion): 0.055 mg/kg

C[C@@H](O)[C@@H]1NC(=O)[C@H](CCCCN)NC(=O)[C@@H](Cc2c[nH]c3ccccc23)NC(=O)[C@H](Cc2ccccc2)NC(=O)[C@@H](NC(=O)[C@H](N)Cc2ccccc2)CSSC[C@@H](C(=O)N[C@H](CO)[C@@H](C)O)NC1=O [Example 1]
ID50 in TEST II for acid concentration (gastric secretion): 0.0004 mg/kg
ID50 in TEST II for gastric juice content (gastric secretion): 0.0007 mg/kg
